Data reported in the supplement of paper PMC10307832.

Assays:
Experiment in all cases: relative viability (nuclei count vs DMSO), 5 days (fraction); higher = more cells survive
BAY61-3606 + Bortezomib = compound: COC1=C(C=C(C=C1)C2=CC3=NC=CN3C(=N2)NC4=C(C=CC=N4)C(=O)N)OC [BAY61-3606] + CC(C)C[C@H](NC(=O)[C@H](Cc1ccccc1)NC(=O)c1cnccn1)B(O)O [Bortezomib] (partner 0.002 µM)
How it was run: (§1)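 Relative viability was taken as the ratio of nuclei in treated wells to nuclei in vehicle wells. Lung cancer cell lines in 1536-well plates received compounds by pin tool one day after seeding, either one drug alone or a fixed anchor-drug dose plus five library-drug doses (not always all listed) in √10 steps. Nuclei were counted on 4× images after 5 days of treatment, and values are medians of duplicate plates.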

Doxorubicin + Phenformin = compound: COc1cccc2c1C(=O)c1c(O)c3c(c(O)c1C2=O)C[C@@](O)(C(=O)CO)C[C@@H]3O[C@H]1C[C@H](N)[C@H](O)[C@H](C)O1 [Doxorubicin] + N=C(N)NC(=N)NCCc1ccccc1 [Phenformin] (partner 250 µM)
How it was run: as §1

BAY61-3606 + Pemetrexed = compound: COC1=C(C=C(C=C1)C2=CC3=NC=CN3C(=N2)NC4=C(C=CC=N4)C(=O)N)OC [BAY61-3606] + Nc1nc2[nH]cc(CCc3ccc(C(=O)N[C@@H](CCC(=O)O)C(=O)O)cc3)c2c(=O)[nH]1 [Pemetrexed] (partner 0.2 µM)
How it was run: as §1

BAY61-3606 + Navitoclax = compound: COC1=C(C=C(C=C1)C2=CC3=NC=CN3C(=N2)NC4=C(C=CC=N4)C(=O)N)OC [BAY61-3606] + CC1(C)CCC(c2ccc(Cl)cc2)=C(CN2CCN(c3ccc(C(=O)NS(=O)(=O)c4ccc(N[C@H](CCN5CCOCC5)CSc5ccccc5)c(S(=O)(=O)C(F)(F)F)c4)cc3)CC2)C1 [Navitoclax] (partner 0.5 µM)
How it was run: as §1

| Cell Line | relative viability (BAY61-3606 + Bortezomib; first compound 0.02 µM) | relative viability (BAY61-3606 + Bortezomib; first compound 0.2 µM) | relative viability (BAY61-3606 + Bortezomib; first compound 0.6325 µM) | relative viability (BAY61-3606 + Bortezomib; first compound 2 µM) | relative viability (Doxorubicin + Phenformin; first compound 0.001 µM) | relative viability (Doxorubicin + Phenformin; first compound 0.003162 µM) | relative viability (Doxorubicin + Phenformin; first compound 0.01 µM) | relative viability (Doxorubicin + Phenformin; first compound 0.03162 µM) | relative viability (Doxorubicin + Phenformin; first compound 0.1 µM) | relative viability (BAY61-3606 + Pemetrexed; first compound 0.06325 µM) | relative viability (BAY61-3606 + Pemetrexed; first compound 0.2 µM) | relative viability (BAY61-3606 + Pemetrexed; first compound 0.6325 µM) | relative viability (BAY61-3606 + Pemetrexed; first compound 2 µM) | relative viability (BAY61-3606 + Navitoclax; first compound 0.02 µM) | relative viability (BAY61-3606 + Navitoclax; first compound 0.06325 µM) | relative viability (BAY61-3606 + Navitoclax; first compound 0.2 µM) | relative viability (BAY61-3606 + Navitoclax; first compound 0.6325 µM) | relative viability (BAY61-3606 + Navitoclax; first compound 2 µM) | relative viability (BAY61-3606 + Bortezomib; first compound 0.06325 µM) | relative viability (BAY61-3606 + Pemetrexed; first compound 0.02 µM) |
| --- | --- | --- | --- | --- | --- | --- | --- | --- | --- | --- | --- | --- | --- | --- | --- | --- | --- | --- | --- | --- |
| HOP-62 | 0.869 | 1.16 | 0.443 | 0.723 | 0.654 | 0.625 | 0.631 | 0.542 | 0.484 | 0.354 | 0.323 | 0.332 | 0.249 | 0.981 | 1.08 | 0.981 | 1.08 | 0.676 | – | – |
| LC-2-ad | 1.02 | 0.979 | 1.08 | 0.907 | 0.498 | 0.516 | 0.562 | 0.289 | 0.304 | 0.267 | 0.261 | 0.289 | 0.267 | 0.471 | 0.521 | 0.466 | 0.468 | 0.26 | 1.1 | 0.289 |
| LCLC-97TM1 | 0.639 | 0.527 | 0.533 | 0.702 | 0.449 | 0.481 | 0.402 | 0.467 | 0.392 | 0.165 | 0.195 | 0.145 | 0.166 | 0.393 | – | 0.386 | 0.417 | 0.326 | 0.73 | 0.188 |
| LOU-NH91 | 0.52 | 0.462 | 0.467 | 0.454 | 0.505 | 0.695 | 0.783 | 0.698 | 0.591 | 0.385 | 0.413 | 0.38 | 0.413 | 0.73 | 0.57 | 0.731 | 0.812 | 0.5 | 0.485 | 0.402 |
| LU99A | 1.14 | 1.18 | 1.12 | 0.709 | 0.698 | 1.06 | 0.767 | 0.721 | 0.669 | 0.149 | 0.193 | 0.171 | 0.166 | 0.845 | 0.762 | 0.984 | 0.828 | 0.396 | 1.21 | 0.175 |
| LXF-289 | 0.985 | 0.992 | 1.04 | 0.99 | 0.432 | 0.545 | 0.498 | 0.504 | 0.495 | 0.939 | 0.901 | 0.946 | 0.907 | 0.887 | 1.05 | 0.952 | 0.981 | 1.01 | 1.03 | 0.94 |
| NCI-H23 | 0.97 | 0.871 | 1.13 | 0.77 | – | 0.84 | 0.806 | 0.58 | 0.486 | 0.689 | 0.547 | 0.708 | 0.429 | 0.936 | 0.809 | 0.775 | 0.983 | 0.551 | 1.36 | 0.64 |
| NCI-H322M | 1.27 | 1.19 | 1.1 | 1.14 | 0.815 | 0.731 | 0.755 | 0.429 | 0.385 | 0.627 | 0.634 | 0.637 | 0.538 | 1.38 | 1.25 | 1.22 | 1.3 | 1.33 | 1.27 | 0.598 |
| NCI-H441 | 0.729 | 0.479 | 0.607 | 0.434 | – | 0.682 | 0.438 | 0.218 | 0.245 | 0.236 | 0.271 | 0.238 | 0.242 | 0.84 | 0.515 | 0.66 | 0.82 | 0.262 | 0.51 | 0.263 |
| NCI-H460 | 1.12 | 1.05 | 0.92 | 0.548 | 0.435 | 0.449 | 0.179 | 0.0505 | 0.0155 | 0.0666 | 0.0787 | 0.0676 | 0.0667 | 1.27 | 1.28 | 1.06 | 1.1 | 0.756 | 1.12 | 0.0615 |
| NCI-H520 | 1.1 | 0.843 | 0.84 | 0.433 | 0.626 | 0.531 | 0.611 | 0.465 | 0.347 | 0.782 | 0.768 | 0.684 | 0.467 | 1.29 | 1.11 | 1.24 | 1.1 | 1.04 | 0.602 | 0.75 |
| NCI-H596 | 0.99 | 1.17 | 1.48 | 1.1 | 0.696 | 0.882 | 0.742 | 0.558 | 0.755 | 0.511 | 0.534 | 0.555 | 0.486 | 0.942 | 1.04 | 1.09 | 1.13 | 0.712 | 1.08 | 0.454 |
| NCI-H647 | 1.16 | 1.19 | 1.07 | 0.696 | 0.539 | 0.494 | 0.432 | 0.231 | 0.103 | 0.156 | 0.184 | 0.145 | 0.131 | 1.21 | 1.05 | 1.04 | 1.26 | 0.663 | 1.06 | 0.146 |
| NCI-H838 | 0.954 | 0.748 | 0.822 | 0.501 | 0.502 | 0.607 | 0.556 | 0.346 | 0.19 | 0.256 | 0.234 | 0.254 | 0.211 | 1.3 | 1.24 | 1.07 | 1.12 | 0.956 | 0.738 | 0.257 |
| NCI-H1355 | 1.19 | 1.17 | 1.27 | 1.21 | 0.423 | 0.488 | 0.465 | 0.449 | 0.416 | 1.03 | 0.977 | 1.11 | 0.924 | 1.08 | 0.962 | 0.865 | 0.995 | 0.721 | 1.07 | 1.1 |
| NCI-H1437 | 0.544 | 0.433 | 0.536 | 0.509 | 0.317 | 0.269 | 0.242 | 0.256 | 0.158 | 0.342 | 0.33 | 0.31 | 0.346 | 1.1 | 1.16 | 1.06 | 1.12 | 1.06 | 0.502 | 0.333 |
| NCI-H1650 | 0.24 | 0.183 | 0.356 | 0.201 | 0.365 | 0.35 | 0.222 | 0.126 | 0.11 | 0.356 | 0.42 | 0.46 | 0.331 | 1.21 | 1.19 | 1.16 | 1.27 | 0.751 | 0.201 | 0.351 |
| NCI-H1651 | 1.03 | 0.911 | 0.941 | 0.952 | 0.319 | 0.336 | 0.259 | 0.154 | 0.153 | 0.544 | 0.492 | 0.537 | 0.531 | 1.21 | 1.09 | 0.964 | 1.17 | 0.909 | 0.99 | 0.608 |
| NCI-H1666 | 0.99 | 0.836 | 0.806 | 0.683 | 0.604 | 0.504 | 0.481 | 0.368 | 0.337 | 0.911 | 0.81 | 0.973 | 0.909 | 1.17 | – | 1.06 | 0.965 | 1.02 | – | 0.84 |
| NCI-H1734 | 0.878 | 0.836 | 0.883 | 0.518 | 0.385 | 0.413 | 0.356 | 0.262 | 0.261 | 0.409 | 0.383 | 0.358 | 0.354 | 0.904 | 0.727 | 0.786 | 0.829 | 0.529 | 0.894 | 0.401 |
| NCI-H1755 | 0.953 | 0.957 | 1.07 | 0.923 | 0.612 | 0.642 | 0.618 | 0.675 | 0.626 | 0.4 | 0.411 | 0.419 | 0.562 | 1.03 | 1.02 | 0.993 | 1.06 | 0.782 | 0.961 | 0.488 |
| NCI-H1792 | 0.967 | 0.879 | 0.943 | 0.976 | – | 0.299 | 0.262 | 0.337 | 0.19 | 1.09 | 0.852 | 0.771 | 0.614 | 0.663 | 0.637 | 0.646 | 0.596 | 0.696 | 0.987 | 1.07 |
| NCI-H1915 | 0.929 | 0.9 | 0.925 | 0.913 | 0.354 | 0.355 | 0.367 | 0.375 | 0.353 | 0.544 | 0.488 | 0.447 | 0.453 | 0.775 | 0.779 | 0.715 | 0.755 | 0.765 | 1 | 0.546 |
| NCI-H1975 | 0.427 | 0.421 | 0.395 | 0.244 | 0.397 | 0.422 | 0.383 | 0.219 | 0.179 | 0.289 | 0.308 | 0.269 | 0.247 | 1.16 | 0.937 | 1.02 | 1.04 | 0.72 | 0.349 | 0.288 |
| NCI-H1993 | 1.08 | 0.976 | 1.12 | 0.848 | 0.508 | 0.494 | 0.455 | 0.491 | 0.453 | 0.564 | 0.541 | 0.57 | 0.461 | 0.831 | 0.785 | 0.707 | 0.819 | 0.739 | 1.02 | 0.642 |
| NCI-H2009 | 1.07 | 0.961 | 1.02 | 0.83 | 0.483 | 0.482 | 0.481 | 0.414 | 0.275 | 1.01 | 1.02 | 0.918 | 0.91 | 1.14 | 1.22 | 1.14 | 1.15 | 1.11 | 1.02 | 1 |
| NCI-H2023 | 1.1 | 1.09 | 1.24 | 0.735 | 0.431 | 0.398 | 0.321 | 0.126 | 0.0808 | 0.257 | 0.212 | 0.246 | 0.157 | 1.03 | 1.05 | 1.07 | 1.02 | 0.873 | 1.08 | 0.263 |
